According to US9828352B2, “Phenyl carbamates and their use as inhibitors of the fatty acid amide hydrolase (FAAH) enzyme and modulators of the D3 dopamine receptor (D3DR)” (FONDAZIONE ISTITUTO ITALIANO DI TECNOLOGIA, priority 2013, dated 2017):
Structures can show the parent of a compound that is named as a salt.

Experiments:
human FAAH-1 = target: T1, human FAAH-1 (Homo sapiens, UniProt O00519); test: Human recombinant Fatty Acid Amide Hydrolase-1 (FAAH-1) fluorescent assay, Hek293-hFAAH-1 membranes; type: biochemical; conditions: 3 separate experiments, each in triplicate
T1 construct: expressed in transfected cells; host or cells: Hek293 cells stably transfected with human FAAH-1; membrane preparation
T1 sequence (O00519 1-579): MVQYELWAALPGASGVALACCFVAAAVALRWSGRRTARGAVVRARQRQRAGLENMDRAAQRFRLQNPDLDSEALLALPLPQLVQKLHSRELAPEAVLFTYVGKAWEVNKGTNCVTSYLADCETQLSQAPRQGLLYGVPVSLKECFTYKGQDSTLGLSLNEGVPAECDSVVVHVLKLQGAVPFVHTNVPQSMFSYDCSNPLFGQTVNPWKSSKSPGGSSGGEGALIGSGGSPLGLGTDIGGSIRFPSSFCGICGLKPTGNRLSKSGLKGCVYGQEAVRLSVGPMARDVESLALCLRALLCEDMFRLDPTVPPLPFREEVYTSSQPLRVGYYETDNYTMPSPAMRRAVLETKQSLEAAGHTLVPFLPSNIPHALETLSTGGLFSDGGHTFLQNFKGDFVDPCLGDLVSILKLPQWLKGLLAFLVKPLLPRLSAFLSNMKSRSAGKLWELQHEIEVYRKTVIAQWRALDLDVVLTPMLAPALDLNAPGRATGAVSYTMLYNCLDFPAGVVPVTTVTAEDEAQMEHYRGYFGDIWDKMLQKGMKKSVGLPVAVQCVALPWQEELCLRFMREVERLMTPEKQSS
Procedure: Human Recombinant Fatty Acid Amide Hydrolase-1 (FAAH-1) Fluorescent Assay
Hek293 cells stably transfected with human FAAH-1 were maintained in DMEM containing 10% FBS, 1% pen/strep and 500 μg/mL G418 to maintain selective pressure. Cells were scraped off with cold PBS1× pH7.4 from plates and collected by centrifugation (500 g, 10 minutes, 4° C.); cells pellets were re-suspended in homogenizing buffer (20 mM Tris-HCl pH7.4, 0.32M sucrose), disrupted by sonication (10 pulses, 5 times) and centrifuged at 800×g for 15 minutes at 4° C.; the resultant supernatants collected were then centrifuged at 105,000×g for 1 hr at 4° C. and membranes pellets were re-suspended in PBS1× pH7.4.
Protein concentration was measured and samples aliquot stored at −80° C. until use.
The blank (no activity) was prepared using 180 μL of assay buffer without Hek293-hFAAH-1 membrane preparation and 10 μL of DMSO.
After 50 minutes of pre-incubation of compounds with the enzyme at 37° C., the reaction was started by the addition of 10 μL of substrate (AMC Arachidonyl Amide, N.10005098, Cayman Chemical) for 30 min at 37° C. The substrate is prepared in Ethanol in order to achieve the final concentration of 2 μM.
Fluorescence was detected with Tecan Infinite M200 nanoquant (Tecan Group Ltd.) at an excitation wavelength 350 nm and an emission wavelength 460 nm.
(§1) EC50 or IC50 values (concentrations causing half-maximal response or inhibition of control agonist response) were determined by non-linear regression analysis of the Log [concentration]/response curves generated with mean replicate values using a four parameter Hill equation curve fitting with GraphPad Prism 5 (GraphPad Software Inc., CA—USA).

human-D3R = target: T2, human-D3R (Homo sapiens, UniProt P35462); test: D3 Dopamine Receptor (D3dR) cellular assay, cAMP HTRF functional assay in human-D3R expressing CHO cells; type: cell-based; conditions: for Emax: CHO, 0.5 h, % of 300 nM Dopamine response, read-out: Dopamine D3 % of Agonist Activity; for EC50: cAMP assay, CHO human-D3R, one experiment in duplicate
T2 construct: expressed in transfected cells; host or cells: CHO cell line stably transfected with human D3R
Procedure: D3 Dopamine Receptor (D3dR) Cellular Assay
Activity on D3R was tested with a cAMP functional assay on a stably transfected human-D3R expressing CHO cell line. On the day of the assay performance the cells were washed twice with PBS (w/o calcium and magnesium) and dislodged with a cell scraper, transferred to PBS, centrifuged and re-suspended in HBSS (w/o calcium and magnesium), supplemented with 1 g/L glucose and […] IBMX. The cell suspension was seeded on a 384 well plate (Greiner) and the assay was performed by adding compounds either test compounds alone (for agonist activity), or with test compound after a pre-incubation with 10 nM Dopamine as a stimulant (for antagonistic activity). After incubation (30 min at RT) the cell stimulation was stopped by adding the detecting reagents (cAMP-XL665 and anti-cAMP cryptate) diluted in lysis buffer. The signal was quantified by Homogenous Time-Resolved Fluorescence (HTRF) on a Perkin Elmer Envision plate reader after one hour of incubation at RT.
as §1

T2 sequence (P35462 whole entry): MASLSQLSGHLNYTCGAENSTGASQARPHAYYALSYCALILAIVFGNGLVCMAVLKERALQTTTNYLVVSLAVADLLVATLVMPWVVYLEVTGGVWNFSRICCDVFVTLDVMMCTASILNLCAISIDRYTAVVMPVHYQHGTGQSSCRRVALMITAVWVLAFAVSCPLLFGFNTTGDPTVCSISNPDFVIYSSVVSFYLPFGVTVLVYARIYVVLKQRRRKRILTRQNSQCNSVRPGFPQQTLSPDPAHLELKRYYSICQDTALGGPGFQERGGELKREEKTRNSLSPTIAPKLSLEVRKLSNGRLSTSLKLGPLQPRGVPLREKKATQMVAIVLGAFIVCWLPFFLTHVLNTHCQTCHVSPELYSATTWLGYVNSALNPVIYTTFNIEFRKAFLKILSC

Row | Compound | IC50 (human FAAH-1) | Emax (human-D3R) | EC50 (human-D3R)
1 | COc1ccccc1N1CCN(CCCCNC(=O)Oc2ccc(C(=O)c3ccccc3)cc2)CC1 [Example 45, (4-benzoylphenyl) N-[4-[4-(2-methoxyphenyl)piperazin-1-yl]butyl]carbamate hydrochloride] | 5.3 nM | 51.4% | 29 nM
2 | Cc1ccccc1N1CCN(CCCNC(=O)Oc2cccc(N3CCOCC3)c2)CC1 [Example 13, (3-morpholino phenyl) N-[3-[4-(o-tolyl)piperazin-1-yl]propyl]carbamate hydrochloride] | 4.4 nM | 59.4% | 150 nM
3 | COc1cc(OC(=O)NCCCN2CCN(c3ccccc3OC)CC2)ccc1-c1ccccc1 [Example 37, (3-methoxy-4-phenyl-phenyl) N-[3-[4-(2-methoxyphenyl)piperazin-1-yl]propyl] carbamate hydrochloride] | 7.8 nM | 73.5% | 38 nM
4 | COc1ccccc1N1CCN(CCCCNC(=O)Oc2ccc3c(c2)[nH]c2ccccc23)CC1 [Example 33, 9H-carbazol-2-yl N-[4-[4-(2-methoxyphenyl)piperazin-1-yl]butyl]carbamate] | 37 nM | 65.9% | 12 nM
5 | COc1ccccc1N1CCN(CCCNC(=O)Oc2ccc(C(=O)c3ccccc3)cc2)CC1 [Example 44, (4-benzoylphenyl) N-[3-[4-(2-methoxyphenyl)piperazin-1-yl]propyl]carbamate hydrochloride] | 11 nM | – | –
6 | O=C(NCCCN1CCN(c2ccccc2C(F)(F)F)CC1)Oc1ccc(N2CCC(F)(F)CC2)cc1 [Example 18, [4-(4,4-difluoro-1-piperidinyl)phenyl] N-[3-[4-[2-(trifluoromethyl)phenyl]piperazin-1-yl]propyl]carbamate hydrochloride] | 28 nM | 86% | 190 nM
7 | O=C(NCCCCN1CCN(c2cccc(Cl)c2Cl)CC1)Oc1cccc(N2CCOCC2)c1 [Example 8, (3-morpholinophenyl) N-[4-[4-(2,3-dichlorophenyl)piperazin-1-yl]butyl] carbamate hydrochloride] | 3.4 nM | 83% | 35 nM
8 | O=C(NCCC(F)CN1CCN(c2cccc(Cl)c2Cl)CC1)Oc1ccc(-c2ccccc2)cc1 (centres unmarked) [Example 36, (4-phenylphenyl) N-[4-[4-(2,3-dichlorophenyl)piperazin-1-yl]-3-fluoro-butyl] carbamate] | 1.3 nM | 87.6% | 150 nM
9 | O=C(NCCCN1CCN(c2ccccc2C(F)(F)F)CC1)Oc1ccc(-c2ccccc2)cc1 [Example 16, (4-phenylphenyl) N-[3-[4-[2-(trifluoromethyl)phenyl]piperazin-1-yl]propyl] carbamate] | 12 nM | 95.4% | 300 nM
10 | O=C(NCCCCN1CCN(c2cccc(Cl)c2Cl)CC1)Oc1cccc(N2CCC(F)(F)CC2)c1 [Example 9, [3-(4,4-difluoro-1-piperidinyl)phenyl] N-[4-[4-(2,3-dichlorophenyl)piperazin-1-yl]butyl]carbamate hydrochloride] | 17 nM | 54.7% | 9.2 nM
11 | O=C(NCCCN1CCN(c2cccc(Cl)c2Cl)CC1)Oc1ccc2c(c1)[nH]c1ccccc12 [Example 17, 9H-carbazol-2-yl N-[3-[4-(2,3-dichlorophenyl)piperazin-1-yl]propyl]carbamate] | 4.8 nM | 91% | 150 nM
12 | Cc1ccccc1N1CCN(CCCNC(=O)Oc2ccc(-c3ccccc3)cc2)CC1 [Example 15, (4-phenylphenyl) N-[3-[4-(o-tolyl)piperazin-1-yl]propyl]carbamate] | 4.1 nM | 82% | 290 nM
13 | O=C(NCCCCN1CCN(c2cccc(Cl)c2Cl)CC1)Oc1ccc(-c2ccccn2)cc1 [Example 24, [4-(2-pyridyl)phenyl] N-[4-[4-(2,3-dichlorophenyl)piperazin-1-yl]butyl]carbamate] | 0.21 nM | 70.4% | 5.92 nM
14 | COc1ccccc1N1CCN(CCCNC(=O)Oc2ccc(Cc3ccccc3)cc2)CC1 [Example 43, (4-benzylphenyl) N-[3-[4-(2-methoxyphenyl)piperazin-1-yl]propyl]carbamate hydrochloride] | 18 nM | – | –
15 | O=C(NCCCCN1CCN(c2cccc(Cl)c2Cl)CC1)Oc1ccc(N2CCC(F)(F)CC2)cc1 [Example 12, [4-(4,4-difluoro-1-piperidinyl)phenyl] N-[4-[4-(2,3-dichlorophenyl)piperazin-1-yl]butyl]carbamate hydrochloride] | 9.9 nM | 90.7% | 49 nM
16 | O=C(NCCCCN1CCN(c2cccc(Cl)c2Cl)CC1)Oc1ccc2c(c1)[nH]c1ccccc12 [Example 28, 9H-carbazol-2-yl N-[4-[4-(2,3-dichlorophenyl)piperazin-1-yl]butyl]carbamate] | 8 nM | 89.7% | 120 nM
17 | NC(=O)c1cccc(-c2ccc(OC(=O)NCCCCN3CCN(c4cccc(Cl)c4Cl)CC3)cc2F)c1 [Example 21, [4-(3-carbamoylphenyl)-3-fluoro-phenyl] N-[4-[4-(2,3-dichlorophenyl)piperazin-1-yl]butyl]carbamate] | 0.96 nM | 69.4% | –
18 | NC(=O)c1cccc(-c2ccc(OC(=O)NCCCCN3CCN(c4ccccc4)CC3)cc2)c1 [Example 25, [4-(3-carbamoylphenyl)phenyl] N-[4-(4-phenylpiperazin-1-yl)butyl]carbamate] | 3.5 nM | 87.5% | 3.6 nM
19 | O=C(NCC(CF)N1CCN(c2cccc(Cl)c2Cl)CC1)Oc1ccc(-c2ccccc2)cc1 (centres unmarked) [Example 41, (4-phenylphenyl) N-[2-[4-(2,3-dichlorophenyl)piperazin-1-yl]-3-fluoro-propyl] carbamate hydrochloride] | 9.9 nM | – | –
20 | NC(=O)c1cccc(-c2cccc(OC(=O)NCCCCN3CCC(c4ccccc4)CC3)c2)c1 [Example 14, [3-(3-carbamoylphenyl)phenyl] N-[4-(4-phenyl-1-piperidinyl)butyl]carbamate hydrochloride] | 9.6 nM | 74.3% | 36 nM
